In patent publication US20120329837A1, “CATHEPSIN INHIBITORS FOR TREATING MICROGLIA-MEDIATED NEURON LOSS IN THE CENTRAL NERVOUS SYSTEM” (ViroBay, Inc., priority 2011, published 2012):
One block for each compound: values may come before it.

Assays:
Human cathepsin S [1] = biological target: T1, Human cathepsin S (Homo sapiens, UniProt P25774); test: Cathepsin S Assay (Z-Val-Val-Arg-AMC hydrolysis); assay type: biochemical; details: Table 2; Enzyme CatS
Human cathepsin S [2] = biological target: T1, Human cathepsin S; test: Cathepsin S Assay (Z-Val-Val-Arg-AMC hydrolysis); assay type: biochemical
Experimental: Solutions of test compounds in varying concentrations were prepared in 10 μL of dimethyl sulfoxide (DMSO) and then diluted into assay buffer (40 μL, comprising: MES, 50 mM (pH 6.5); EDTA, 2.5 mM; and NaCl, 100 mM); β-mercaptoethanol, 2.5 mM; and BSA, […]. Human cathepsin S (0.05 pMoles in 25 μL of assay buffer) was added to the dilutions. The assay solutions were mixed for 5-10 seconds on a shaker plate, covered and incubated for 30 min at room temperature. Z-Val-Val-Arg-AMC (4 nMoles in 25 μL of assay buffer containing 10% DMSO) was added to the assay solutions and hydrolysis was followed spectrophotometrically (at λ 460 nm) for 5 min. Apparent inhibition constants (Ki) were calculated from the enzyme progress curves using standard mathematical models.

T1 sequence (P25774 115-331): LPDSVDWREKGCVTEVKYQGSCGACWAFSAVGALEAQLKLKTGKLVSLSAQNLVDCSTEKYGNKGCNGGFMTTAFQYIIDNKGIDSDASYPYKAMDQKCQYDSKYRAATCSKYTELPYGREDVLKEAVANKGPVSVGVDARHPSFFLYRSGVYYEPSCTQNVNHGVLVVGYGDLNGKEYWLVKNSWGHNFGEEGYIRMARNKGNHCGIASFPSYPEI

IC50 (Human cathepsin S [1]): < 10 nM
Structure (SMILES): N#CC1(NC(=O)[C@H](CC(F)(F)CC2CC2)N[C@@H](c2ccccc2)C(F)(F)F)CC1

Ki (Human cathepsin S [2]; Table 3): < 20 nM
Structure (SMILES): CC(C)CC(F)(F)C[C@H](N[C@@H](c1ccc(F)cc1)C(F)(F)F)C(=O)NC1(C#N)CC1 [drawing 40]

IC50 (Human cathepsin S [1]): < 10 nM
Structure (SMILES): N#CC1(NC(=O)[C@H](CC(F)(F)CC2CC2)N[C@@H](c2ccc(F)c(F)c2)C(F)(F)F)CC1

Ki (Human cathepsin S [2]; Table 1): < 10 nM
Structure (SMILES): CCC(F)(F)C[C@H](N[C@@H](c1ccc(F)cc1)C(F)(F)F)C(=O)NC1(C#N)CC1 [drawing 30]

Ki (Human cathepsin S [2]; Table 3): < 20 nM
Structure (SMILES): CCC(F)(F)C[C@H](N[C@@H](c1ccc(F)cc1)C(F)(F)F)C(=O)NC1(C#N)CC1 [drawing 42]

Ki (Human cathepsin S [2]; Table 3): < 20 nM
Structure (SMILES): CCC(F)(F)CC[C@H](N[C@@H](c1ccc(F)cc1)C(F)(F)F)C(=O)NC1(C#N)CC1

Ki (Human cathepsin S [2]; Table 3): < 20 nM
Structure (SMILES): CCCCC(F)(F)C[C@H](N[C@@H](c1ccc(F)cc1)C(F)(F)F)C(=O)NC1(C#N)CC1 [drawing 44]

Ki (Human cathepsin S [2]; text statement for drawn compounds): < 10 nM
Structure (SMILES): CC(C)CS(=O)(=O)C[C@H](N[C@@H](c1ccc(F)cc1)C(F)(F)F)C(=O)NC1(C#N)CC1

Ki (Human cathepsin S [2]; Table 1): < 10 nM
Structure (SMILES): CC(C)CC(F)(F)C[C@H](N[C@@H](c1ccc(F)cc1)C(F)(F)F)C(=O)NC1(C#N)CC1 [drawing 31]

IC50 (Human cathepsin S [1]): < 10 nM
Structure (SMILES): N#CC1(NC(=O)[C@H](CC(F)(F)CC2CC2)N[C@@H](c2ccc(C(F)(F)F)cc2)C(F)(F)F)CC1

IC50 (Human cathepsin S [1]): < 10 nM
Structure (SMILES): COc1ccc([C@H](N[C@@H](CC(F)(F)CC2CC2)C(=O)NC2(C#N)CC2)C(F)(F)F)cc1

Ki (Human cathepsin S [2]; Table 3): < 20 nM
Structure (SMILES): N#CC1(NC(=O)[C@H](CC(F)(F)CC2CC2)N[C@@H](c2ccc(F)cc2)C(F)(F)F)CC1

Ki (Human cathepsin S [2]; Table 3): < 20 nM
Structure (SMILES): CCCC(F)(F)C[C@H](N[C@@H](c1ccc(F)cc1)C(F)(F)F)C(=O)NC1(C#N)CC1 [drawing 43]

Ki (Human cathepsin S [2]; Table 3): < 20 nM
Structure (SMILES): N#CC1(NC(=O)[C@H](CC(F)(F)c2ccccc2)N[C@@H](c2ccc(F)cc2)C(F)(F)F)CC1

Ki (Human cathepsin S [2]; Table 1): < 10 nM
Structure (SMILES): CCCC(F)(F)C[C@H](N[C@@H](c1ccc(F)cc1)C(F)(F)F)C(=O)NC1(C#N)CC1 [drawing 32]

Ki (Human cathepsin S [2]; Table 1): < 10 nM
Structure (SMILES): CCCCC(F)(F)C[C@H](N[C@@H](c1ccc(F)cc1)C(F)(F)F)C(=O)NC1(C#N)CC1 [drawing 33]

Ki (Human cathepsin S [2]; Table 3): < 20 nM
Structure (SMILES): N#CC1(NC(=O)[C@H](CC(F)(F)Cc2ccccc2)N[C@@H](c2ccc(F)cc2)C(F)(F)F)CC1
